From PMC4464910 (Pharmacological research : the official journal of the …, 2015)

Columns and labels:
[1] = system: carrageenan-induced edema; test: carrageenan-induced paw edema; format: in vivo, CD1 mice; details: mice, 10 mg kg^−1 oral, P<.001
2-AG hydrolysis = 2-AG hydrolysis colorimetric assay in rat brain microsomes; format: biochemical; details: read-out: 2-AG hydrolysis IC50, n=3
heat hyperalgesia = test: carrageenan-induced heat hyperalgesia; format: in vivo, CD1 mice; details: mice, oral, time point 4 hours
mechanical allodynia = format: in vivo, Sprague-Dawley rats; details: for ED50 on mechanical allodynia: i.p., time point 1 hour
mechanical hyperalgesia = test: carrageenan-induced mechanical hyperalgesia; format: in vivo, CD1 mice; details: mice, oral, time point 4 hours

CCC(=O)N1CCC(NC(=O)Nc2ccc(OC(F)(F)F)cc2)CC1 [TPPU]
suppression of edema 24 hours after application [1]: still statistically detectable | IC50 (2-AG hydrolysis): > 100 µM | ED50 on heat hyperalgesia (heat hyperalgesia): 0.5 mg/kg | ED50 on mechanical allodynia (mechanical allodynia; diabetic rats): 0.1 mg/kg | ED50 on mechanical hyperalgesia (mechanical hyperalgesia): 1 mg/kg

NC(=O)c1cccc(-c2cc(OC(=O)NC3CCCCC3)ccc2O)c1 [URB937]
IC50 (2-AG hydrolysis): > 100 µM | ED50 on heat hyperalgesia (heat hyperalgesia): 0.2 mg/kg | ED50 on mechanical allodynia (mechanical allodynia; diabetic rats): 0.3 mg/kg | effect on allodynia at 0.3 mg kg^−1 (mechanical allodynia; neuropathic rats, 0.3 mg kg^−1 dose): attenuated allodynia

O=C(Nc1cccc(OC(F)(F)F)c1)N[C@H]1CC[C@H](Oc2ccc(C(=O)O)cc2)CC1 [t-TUCB, trans-4-[4-(3-trifluoromethoxyphenyl-l-ureido)-cyclohexyloxy]-benzoic acid]
effect on allodynia compared with TPPU and URB937 at the same dose (mechanical allodynia; diabetic rats, 3 mg kg^−1 i.p.): similar
